Here are results for 13 compounds from patent publication US9321774B2, “Pyrrolobenzodiazepines” (MEDIMMUNE LIMITED, priority 2012, dated 2016).

In brackets after ≈: the same amount, converted by molar mass. Like-named read-outs stand apart in the source and are kept apart here.

What all share (assay): CLSI broth microplate assay, MIC
Format in all cases: cell-based

The subject of one assay is E. faecium VRE10. The note with it: Enterococcus faecium.
In another assay the test system is MRSA strain BB568. The conditions noted are these: Staphylococcus aureus, read-out: Minimum inhibitory concentration (MIC mg/L) BB568.
The test system of another assay is MRSA strain EMRSA-16. The conditions noted are these: Staphylococcus aureus, read-out: Minimum inhibitory concentration (MIC mg/L) EMRSA-16.
The test system of another assay is MRSA strain EMRSA-15. The conditions noted are these: Staphylococcus aureus, read-out: Minimum inhibitory concentration (MIC mg/L) EMRSA-15.
Assay [1] has as its system community-associated MRSA isolate USA300. The note with it: Staphylococcus aureus, read-out: Minimum inhibitory concentration (MIC mg/L) USA300.
In another assay the test system is E. faecalis VRE1. The conditions noted are these: Enterococcus faecalis.
In assay [2] the test system is S. aureus VISA strain Mu50. The conditions noted are these: Staphylococcus aureus, read-out: Minimum inhibitory concentration (MIC mg/L) Mu50.
The mark [3] stands for this setting: VRE10, read-out: Minimum inhibitory concentration (MIC mg/L) VRE10.
The mark [4] stands for this setting: VRE1, read-out: Minimum inhibitory concentration (MIC mg/L) VRE1.
Where [5] appears, read: VRE10, Mueller-Hinton broth, 37° C., read-out: Minimum inhibitory concentration (MIC mg/L) VRE10.
[6] abbreviates: EMRSA-15, Mueller-Hinton broth, 37° C.
Where [7] appears, read: Mu50, Mueller-Hinton broth, 37° C.
The mark [8] stands for this setting: BB568, Mueller-Hinton broth, 37° C.
The mark [9] stands for this setting: EMRSA-16, Mueller-Hinton broth, 37° C.
Setting [10] is: VRE1, Mueller-Hinton broth, 37° C., read-out: Minimum inhibitory concentration (MIC mg/L) VRE1.

In the case of `COC(=O)c1ccc(-c2ccc(NC(=O)CCCOc3cc4c(cc3OC)C(=O)N3CCC[C@H]3C=N4)cc2)s1` [Compound 18, (S)-methyl 5-(4-(4-((7-methoxy-5-oxo-2,3,5,11a-tetrahydro-1H-benzo[e]pyrrolo[1,2-a][1,4]diazepin-8-yl)oxy)butanamido)phenyl)thiophene-2-carboxylate, reference compound], the MIC is 16 mg/L (≈ 29.2 µM) in the assay on E. faecium VRE10 (setting [3]); above 32 mg/L in the assay on MRSA strain BB568; above 32 mg/L in the assay with MRSA strain EMRSA-16; above 32 mg/L with MRSA strain EMRSA-15; 32 mg/L (≈ 58.4 µM) in assay [1]; above 32 mg/L in the assay on E. faecalis VRE1 (setting [4]). Besides, the MIC in assay [2] is above 32 mg/L.
Consider `COc1cc2c(cc1OCCCC(=O)Nc1cc(C(=O)Nc3ccc4occc4c3)n(C)c1)N=C[C@@H]1CCCN1C2=O` [Compound 26, (S)—N-(benzofuran-5-yl)-4-(4-((7-methoxy-5-oxo-2,3,5,11a-tetrahydro-1H-benzo[e]pyrrolo[1,2-a][1,4]diazepin-8-yl)oxy)butanamido)-1-methyl-1H-pyrrole-2-carboxamide], for which the MIC in the assay on E. faecium VRE10 (setting [5]) is 0.06 mg/L (≈ 0.105 µM); in the assay with MRSA strain BB568, 0.125 mg/L (≈ 0.219 µM); with MRSA strain EMRSA-16 it was 0.125 mg/L (≈ 0.219 µM); in the assay on MRSA strain EMRSA-15 (setting [6]), 0.06 mg/L (≈ 0.105 µM); in assay [1] it was 0.125 mg/L (≈ 0.219 µM); in the assay with E. faecalis VRE1 (setting [4]), 0.06 to 0.125 mg/L (≈ 0.105 to 0.219 µM). Moreover, the MIC in assay [2] (setting [7]) was 0.06 mg/L (≈ 0.105 µM).
As for `COc1cc2c(cc1OCCCC(=O)Nc1cc(C(=O)Nc3ccc4sccc4c3)n(C)c1)N=C[C@@H]1CCCN1C2=O` [Compound 27, (S)—N-(benzo[b]thiophen-5-yl)-4-(4-((7-methoxy-5-oxo-2,3,5,11a-tetrahydro-1H-benzo[e]pyrrolo[1,2-a][1,4]diazepin-8-yl)oxy)butanamido)-1-methyl-1H-pyrrole-2-carboxamide], the MIC was 0.03 mg/L (≈ 0.0512 µM) in the assay on E. faecium VRE10 (setting [5]); 0.125 mg/L (≈ 0.213 µM) with MRSA strain BB568 (setting [8]); 0.125 mg/L (≈ 0.213 µM) in the assay on MRSA strain EMRSA-16 (setting [9]); 0.03 mg/L (≈ 0.0512 µM) with MRSA strain EMRSA-15 (setting [6]); 0.06 to 0.125 mg/L (≈ 0.102 to 0.213 µM) in assay [1]; 0.125 mg/L (≈ 0.213 µM) in the assay with E. faecalis VRE1 (setting [10]). Further, the MIC in assay [2] (setting [7]) was below 0.03 mg/L.
As to `COC(=O)c1cc2cc(NC(=O)c3cc(NC(=O)CCCOc4cc5c(cc4OC)C(=O)N4CCC[C@H]4C=N5)cn3C)ccc2s1` [Compound 28, (S)-methyl 5-(4-(4-((7-methoxy-5-oxo-2,3,5,11a-tetrahydro-1H-benzo[e]pyrrolo[1,2-a][1,4]diazepin-8-yl)oxy)butanamido)-1-methyl-1H-pyrrole-2-carboxamido)benzo[b]thiophene-2-carboxylate], the MIC in the assay with E. faecium VRE10 (setting [3]) came to 0.06 mg/L (≈ 0.0932 µM); in the assay on MRSA strain BB568, 0.125 mg/L (≈ 0.194 µM); in the assay with MRSA strain EMRSA-16, 0.125 mg/L (≈ 0.194 µM); with MRSA strain EMRSA-15, 0.06 mg/L (≈ 0.0932 µM); in assay [1], 0.06 mg/L (≈ 0.0932 µM); with E. faecalis VRE1 (setting [4]) it was 0.06 mg/L (≈ 0.0932 µM).
For the compound `COc1cc2c(cc1OCCCC(=O)Nc1cc(C(=O)Nc3ccc(N4CCOCC4)cc3)n(C)c1)N=C[C@@H]1CCCN1C2=O` [Compound 30, (S)-4-(4-((7-methoxy-5-oxo-2,3,5,11a-tetrahydro-1H-benzo[e]pyrrolo[1,2-a][1,4]diazepin-8-yl)oxy)butanamido)-1-methyl-N-(4-morpholinophenyl)-1H-pyrrole-2-carboxamide], the MIC with E. faecium VRE10 (setting [5]) came to 0.5 mg/L (≈ 0.813 µM); with MRSA strain BB568 (setting [8]), 2 mg/L (≈ 3.25 µM); with MRSA strain EMRSA-16 (setting [9]) it was 2 mg/L (≈ 3.25 µM); in the assay on MRSA strain EMRSA-15 (setting [6]) it was 0.5 mg/L (≈ 0.813 µM); in assay [1], 0.5 mg/L (≈ 0.813 µM); with E. faecalis VRE1 (setting [10]), 1 mg/L (≈ 1.63 µM).
Turning to `COc1cc2c(cc1OCCCC(=O)Nc1cc(C(=O)Nc3ccc(N4CCOCC4)nc3)n(C)c1)N=C[C@@H]1CCCN1C2=O` [Compound 31, (S)-4-(4-((7-methoxy-5-oxo-2,3,5,11a-tetrahydro-1H-benzo[e]pyrrolo[1,2-a][1,4]diazepin-8-yl)oxy)butanamido)-1-methyl-N-(6-morpholinopyridin-3-yl)-1H-pyrrole-2-carboxamide], the MIC in the assay on E. faecium VRE10 (setting [3]) turned out to be 0.5 mg/L (≈ 0.812 µM); with MRSA strain BB568, 4 mg/L (≈ 6.5 µM); in the assay on MRSA strain EMRSA-16, 4 mg/L (≈ 6.5 µM); in the assay on MRSA strain EMRSA-15, 0.5 mg/L (≈ 0.812 µM); in assay [1] it was 1 mg/L (≈ 1.62 µM); with E. faecalis VRE1 (setting [4]) it was 1 mg/L (≈ 1.62 µM).
For the compound `COC(=O)c1cc2cc(NC(=O)c3nc(NC(=O)CCCOc4cc5c(cc4OC)C(=O)N4CCC[C@H]4C=N5)cn3C)ccc2s1` [Compound 35, (S)-methyl 5-(4-(4-((7-methoxy-5-oxo-2,3,5,11a-tetrahydro-1H-benzo[e]pyrrolo[1,2-a][1,4]diazepin-8-yl)oxy)butanamido)-1-methyl-1H-imidazole-2-carboxamido)benzo[b]thiophene-2-carboxylate], the MIC (in the assay on E. faecium VRE10 (setting [3]); with MRSA strain BB568; in the assay with MRSA strain EMRSA-16; in the assay on MRSA strain EMRSA-15; in assay [1]; with E. faecalis VRE1 (setting [4])) was 0.06 mg/L (≈ 0.0931 µM) each time.
Regarding `COc1cc2c(cc1OCCCC(=O)Nc1cn(C)c(C(=O)Nc3ccc(N4CCOCC4)cc3)n1)N=C[C@@H]1CCCN1C2=O` [Compound 37, (S)-4-(4-((7-methoxy-5-oxo-2,3,5,11a-tetrahydro-1H-benzo[e]pyrrolo[1,2-a][1,4]diazepin-8-yl)oxy)butanamido)-1-methyl-N-(4-morpholinophenyl)-1H-imidazole-2-carboxamide], the MIC turned out to be 0.125 mg/L (≈ 0.203 µM) with E. faecium VRE10 (setting [3]); 0.5 mg/L (≈ 0.812 µM) with MRSA strain BB568; 0.5 mg/L (≈ 0.812 µM) in the assay with MRSA strain EMRSA-16; 0.125 mg/L (≈ 0.203 µM) in the assay on MRSA strain EMRSA-15; 0.125 mg/L (≈ 0.203 µM) in assay [1]; 0.25 mg/L (≈ 0.406 µM) in the assay on E. faecalis VRE1 (setting [4]).
As to `COc1cc2c(cc1OCCCC(=O)Nc1cn(C)c(C(=O)Nc3ccc(OCCN4CCOCC4)cc3)n1)N=C[C@@H]1CCCN1C2=O` [Compound 39, (S)-4-(4-((7-methoxy-5-oxo-2,3,5,11a-tetrahydro-1H-benzo[e]pyrrolo[1,2-a][1,4]diazepin-8-yl)oxy)butanamido)-1-methyl-N-(4-(2-morpholinoethoxyl)phenyl)-1H-imidazole-2-carboxamide], the MIC with E. faecium VRE10 (setting [5]) is 0.5 mg/L (≈ 0.758 µM); in the assay on MRSA strain BB568 (setting [8]), 0.25 to 0.5 mg/L (≈ 0.379 to 0.758 µM); with MRSA strain EMRSA-16 (setting [9]), 0.25 mg/L (≈ 0.379 µM); in the assay with MRSA strain EMRSA-15 (setting [6]), 0.25 mg/L (≈ 0.379 µM); in assay [1] it was 0.5 mg/L (≈ 0.758 µM); in the assay with E. faecalis VRE1 (setting [10]), 0.125 mg/L (≈ 0.189 µM). The MIC in assay [2] (setting [7]) was 0.125 mg/L (≈ 0.189 µM).
With `COc1cc2c(cc1OCCCC(=O)Nc1cn(C)c(C(=O)Nc3ccc(N4CCOCC4)nc3)n1)N=C[C@@H]1CCCN1C2=O` [Compound 40, (S)-4-(4-((7-methoxy-5-oxo-2,3,5,11a-tetrahydro-1H-benzo[e]pyrrolo[1,2-a][1,4]diazepin-8-yl)oxy)butanamido)-1-methyl-N-(6-morpholinopyridin-3-yl)-1H-imidazole-2-carboxamide], the MIC was 0.125 mg/L (≈ 0.203 µM) in the assay with E. faecium VRE10 (setting [3]); 0.5 mg/L (≈ 0.811 µM) in the assay with MRSA strain BB568; 0.5 mg/L (≈ 0.811 µM) with MRSA strain EMRSA-16; 0.125 mg/L (≈ 0.203 µM) in the assay with MRSA strain EMRSA-15; 0.125 mg/L (≈ 0.203 µM) in assay [1]; 0.25 mg/L (≈ 0.405 µM) with E. faecalis VRE1 (setting [4]).
Turning to `COc1cc2c(cc1OCCCC(=O)Nc1ccc(-c3cc(C(=O)Nc4ccc(N5CCOCC5)cc4)n(C)c3)cc1)N=C[C@@H]1CCCN1C2=O` [Compound 49, (S)-4-(4-(4-((7-methoxy-5-oxo-2,3,5,11a-tetrahydro-1H-benzo[e]pyrrolo[1,2-a][1,4]diazepin-8-yl)oxy)butanamido)phenyl)-1-methyl-N-(4-morpholinophenyl)-1H-pyrrole-2-carboxamide], the MIC in the assay with E. faecium VRE10 (setting [3]) was 0.5 to 1 mg/L (≈ 0.724 to 1.45 µM); in the assay on MRSA strain BB568 it was 2 mg/L (≈ 2.9 µM); in the assay with MRSA strain EMRSA-16, 2 mg/L (≈ 2.9 µM); in the assay with MRSA strain EMRSA-15 it was 2 mg/L (≈ 2.9 µM); in assay [1], 2 mg/L (≈ 2.9 µM); in the assay on E. faecalis VRE1 (setting [4]), 0.5 mg/L (≈ 0.724 µM). In addition, the MIC in assay [2] was 1 mg/L (≈ 1.45 µM).
As to `COc1cc2c(cc1OCCCC(=O)Nc1ccc(-c3cc(C(=O)Nc4ccc(OCCN5CCOCC5)cc4)n(C)c3)cc1)N=C[C@@H]1CCCN1C2=O` [Compound 51, (S)-4-(4-(4-((7-methoxy-5-oxo-2,3,5,11a-tetrahydro-1H-benzo[e]pyrrolo[1,2-a][1,4]diazepin-8-yl)oxy)butanamido)phenyl)-1-methyl-N-(4-(2-morpholinoethoxyl)phenyl)-1H-pyrrole-2-carboxamide], the MIC with E. faecium VRE10 (setting [5]) is 1 mg/L (≈ 1.36 µM); in the assay with MRSA strain BB568 (setting [8]), 2 mg/L (≈ 2.72 µM); in the assay with MRSA strain EMRSA-16 (setting [9]) it was 2 mg/L (≈ 2.72 µM); with MRSA strain EMRSA-15 (setting [6]) it was 2 mg/L (≈ 2.72 µM); in assay [1] it was 2 mg/L (≈ 2.72 µM); in the assay with E. faecalis VRE1 (setting [10]), 0.5 mg/L (≈ 0.68 µM). Besides, the MIC in assay [2] (setting [7]) was 1 mg/L (≈ 1.36 µM).
Turning to `COc1cc2c(cc1OCCCC(=O)Nc1ccc(-c3cc(C(=O)NCc4ccc(OCCN5CCOCC5)cc4)n(C)c3)cc1)N=C[C@@H]1CCCN1C2=O` [Compound 52, (S)-4-(4-(4-((7-methoxy-5-oxo-2,3,5,11a-tetrahydro-1H-benzo[e]pyrrolo[1,2-a][1,4]diazepin-8-yl)oxy)butanamido)phenyl)-1-methyl-N-(4-(2-morpholinoethoxyl)benzyl)-1H-pyrrole-2-carboxamide], the MIC in the assay on E. faecium VRE10 (setting [3]) was 1 mg/L (≈ 1.34 µM); in the assay on MRSA strain BB568, 4 mg/L (≈ 5.34 µM); in the assay with MRSA strain EMRSA-16 it was 1 to 2 mg/L (≈ 1.34 to 2.67 µM); in the assay on MRSA strain EMRSA-15 it was 4 mg/L (≈ 5.34 µM); in assay [1] it was 4 mg/L (≈ 5.34 µM); in the assay on E. faecalis VRE1 (setting [4]), 2 mg/L (≈ 2.67 µM). Further, the MIC in assay [2] was 2 mg/L (≈ 2.67 µM).
